Assay results reported in patent publication US20260124184A1, “ONCE DAILY ALDOSTERONE SYNTHASE INHIBITOR (R)-(+)-5-(P-CYANOPHENYL)-5,6,7,8-TETRAHYDROIMIDAZO[L,5-A]PYRIDINE” (priority 2022, published 2026).
“Also recorded” adds a separate entry of the source. Like-named read-outs stand apart in the source and are kept apart here.

Experiments:
[1] = tested on: patients with primary aldosteronism
Procedure: (§1) A double-blind, randomized, Phase 2 trial was conducted between November 2019 and June 2022 at 11 centres in Italy, Switzerland and the Netherlands (NCT04007406). […] Patients requiring fixed-dose antihypertensive therapy continued treatment throughout the study; steroid therapies, β-adrenergic and renin-angiotensin-aldosterone system blockers were not permitted. At 14-day intervals, office blood pressures were recorded and blood samples were taken for measurement of steroid and peptide hormones and electrolytes at a central laboratory.
Plasma aldosterone and plasma renin concentration were measured centrally under GCP regulations using the Liaison® chemiluminescent immunoassay kit supplied by DiaSorin S.p.A. Italy. The system used specific monoclonal antibodies to prevent cross reactions with other major potential reactants in the serum samples. The monoclonal antibodies directed against specific epitopes of the renin molecule allowed accurate and sensitive quantification. The assays were performed according to the instructions provided by the manufacturer. […] The analytical sensitivity was <0.97 ng/ml. […] The analytical sensitivity was <0.53 IU/mL.
(§2) For all efficacy endpoints, changes from baseline were calculated from linear models and accompanied by 95% confidence intervals and p values. Log-transformed values were used for changes in ARR. The full analysis set (FAS) and safety set were defined as all randomized patients who received at least one dose of study drug.

[2] = tested on: patients with primary aldosteronism; remark: listed apart in the source
Procedure: as §1
A centrally calibrated and validated device (Spacelab Healthcare) was used; the device was fitted at the hospital outpatient department by medically qualified staff on day −1 and day 55 prior to supervised drug intake by the patient. The light digital monitor with convenient carry pouches takes the blood pressure reading at regular intervals by inflating and subsequently deflating customized cuffs placed around the non-dominant upper arm for 24-hour recording of about 70 readings. Patients followed their regular routines yet refrained from exercising or taking a bath or shower. In addition, to assure proper measurements, the patient was asked to sit down prior to reading, keep the cuff at the same level as the heart and rest the arm steady. The patient was also asked to keep a diary on activities, meals and sleep to document what he/she was doing just before the reading was taken. At the end of the 24-hour period, the patient was able to remove the monitor and cuff, shower or bathe and return the device to the Investigator at the clinic. The machine stored all readings as source data that were uploaded in the eCRF.
as §2

[3] = 4 mg once daily, n=10, Day 1 (baseline)
[4] = 4 mg once daily, n=10, Day 70 (after placebo withdrawal)
[5] = 8 mg once daily, n=12, Day 1 (baseline)
[6] = 8 mg once daily, n=12, Day 70 (after placebo withdrawal)
[7] = 12 mg once daily, n=13, Day 1 (baseline)
[8] = 12 mg once daily, n=13, Day 70 (so in the source)

## (R)-(+)-5-(p-cyanophenyl)-5,6,7,8-tetrahydroimidazolium[1,5-a]pyridine dihydrogen phosphate [dexfadrostat phosphate]
[1]; 4 mg once daily, n=10
  change in ARR from baseline to Day 56, mean: −20.87 (ng/dL)/(mU/L)
  change in ARR from baseline to Day 56, median: −14.98 (ng/dL)/(mU/L)
[1]; [3]
  ARR, mean: 24.56 (ng/dL)/(mU/L)
  ARR, median: 21.37 (ng/dL)/(mU/L)
[1]; 4 mg once daily, n=10, Day 14
  ARR, mean: 4.57 (ng/dL)/(mU/L)
  ARR, median: 3.76 (ng/dL)/(mU/L)
[1]; 4 mg once daily, n=10, Day 28
  ARR, mean: 2.57 (ng/dL)/(mU/L)
  ARR, median: 1.76 (ng/dL)/(mU/L)
[1]; 4 mg once daily, n=10, Day 42
  ARR, mean: 2.87 (ng/dL)/(mU/L)
  ARR, median: 2.07 (ng/dL)/(mU/L)
[1]; 4 mg once daily, n=10, Day 56
  ARR, mean: 3.70 (ng/dL)/(mU/L)
  ARR, median: 2.52 (ng/dL)/(mU/L)
[1]; [4]
  ARR, mean: 12.34 (ng/dL)/(mU/L)
  ARR, median: 11.47 (ng/dL)/(mU/L)
[1]; 8 mg once daily, n=12
  change in ARR from baseline to Day 56, mean: −10.61 (ng/dL)/(mU/L)
  change in ARR from baseline to Day 56, median: −6.99 (ng/dL)/(mU/L)
[1]; [5]
  ARR, mean: 11.58 (ng/dL)/(mU/L)
  ARR, median: 7.18 (ng/dL)/(mU/L)
[1]; 8 mg once daily, n=12, Day 14
  ARR, mean: 0.8 (ng/dL)/(mU/L)
  ARR, median: 0.31 (ng/dL)/(mU/L)
[1]; 8 mg once daily, n=12, Day 28
  ARR, mean: 1.26 (ng/dL)/(mU/L)
  ARR, median: 0.4 (ng/dL)/(mU/L)
[1]; 8 mg once daily, n=12, Day 42
  ARR, mean: 0.74 (ng/dL)/(mU/L)
  ARR, median: 0.29 (ng/dL)/(mU/L)
[1]; 8 mg once daily, n=12, Day 56
  ARR, mean: 0.96 (ng/dL)/(mU/L)
  ARR, median: 0.27 (ng/dL)/(mU/L)
[1]; [6]
  ARR, mean: 4.19 (ng/dL)/(mU/L)
  ARR, median: 2.46 (ng/dL)/(mU/L)
[1]; 12 mg once daily, n=13
  change in ARR from baseline to Day 56, mean: −15.61 (ng/dL)/(mU/L)
  change in ARR from baseline to Day 56, median: −13.97 (ng/dL)/(mU/L)
[1]; [7]
  ARR, mean: 17.75 (ng/dL)/(mU/L)
  ARR, median: 17.8 (ng/dL)/(mU/L)
[1]; [8]
  ARR, mean: 9.3 (ng/dL)/(mU/L)
  ARR, median: 13.72 (ng/dL)/(mU/L)
[1]; Day 70, after 14-day placebo withdrawal
  ARR upon drug withdrawal: ARR values returned towards baseline values
[1]; all doses combined, n=35
  change in ARR from baseline to Day 56, mean: −15.40 (ng/dL)/(mU/L)
  change in ARR from baseline to Day 56, median: −11.76 (ng/dL)/(mU/L)
[1]; all patients, Day 1 to Day 56, FIG. 2A, p<0.0001
  LSM change in lognormal values of ARR from baseline: −2.54 (95% CI −2.9 to −2.2)
[1]; all three doses (4 mg, 8 mg, 12 mg)
  effect on ARR from baseline to day 56: significant reductions (p<0.0001) in ARR from baseline to day 56
[1]; all three doses, baseline to day 14, 28, 42 and 56
  effect on ARR over time: rapid and significant (p<0.0001) reductions in ARR; also recorded: rapid and significant reductions (p<0.0001) in ARR
[2]; 4 mg once daily, n=10
  change in 24-h aSBP from baseline to Day 56, mean: −8.10 mmHg
  change in 24-h aSBP from baseline to Day 56, median: −8.17 mmHg
[2]; [3]
  24-h aSBP, mean: 136.84 mmHg
  24-h aSBP, median: 138.38 mmHg
[2]; 4 mg once daily, n=10, Day 56
  24-h aSBP, mean: 128.74 mmHg
  24-h aSBP, median: 129.43 mmHg
[2]; 8 mg once daily, n=12
  change in 24-h aSBP from baseline to Day 56, mean: −13.95 mmHg
  change in 24-h aSBP from baseline to Day 56, median: −13.33 mmHg
[2]; [5]
  24-h aSBP, mean: 144.88 mmHg
  24-h aSBP, median: 144.76 mmHg
[2]; 8 mg once daily, n=12, Day 56
  24-h aSBP, mean: 130.93 mmHg
  24-h aSBP, median: 129.43 mmHg
[2]; 12 mg once daily, n=13
  change in 24-h aSBP from baseline to Day 56, mean: −9.81 mmHg
  change in 24-h aSBP from baseline to Day 56, median: −12.43 mmHg
[2]; [7]
  24-h aSBP, mean: 144.96 mmHg
  24-h aSBP, median: 146.87 mmHg
[2]; 12 mg once daily, n=13, Day 56
  24-h aSBP, mean: 135.15 mmHg
  24-h aSBP, median: 130.82 mmHg
[2]; all dose groups combined, p<0.0001
  decrease in mean 24-h aSBP from baseline to day 56: 10.7 mmHg
[2]; all doses combined, n=35
  change in aSBP from baseline to Day 56, mean: −10.74 mmHg
